Assay: Skin permeation of CBD in a Franz-type diffusion cell
Assay type: in vitro ADME
Details: 5 ul of 5.0% w/w CBD formulation, 48-hour exposure
Experimental: Dermatomed skin from a single donor was mounted in a Franz-type diffusion cell (0.55 cm^2 receptor fluid exposure surface area) and dosed with 5 ul of CBD formulated in an mixture of a volatile solvent (hexylmethyldisiloxane/polymethylsiloxane—93% w/w), and residual solvent (arlamol E—2% w/w) at a concentration of 5.0% (w/w; 35.5 mg/ml). Following dosing, receptor phase samples were collected at 4, 10, 24 and 48 hours; after which the study was terminated.
The residual formulation was removed by tape stripping and the epidermis and dermis separated by blunt dissection. The levels of CBD in the epidermis, dermis, and receptor fluid samples were then analyzed using a bioanalytical method with LC-MS/MS detection.

C=C(C)C1CCC(C)=CC1c1c(O)cc(CCCCC)cc1O (centres unmarked) [CBD, 2-[3-methyl-6-(1-methylethenyl)-2-cyclohexen-1-yl]-5-pentyl-1,3-benzenediol]
skin permeation through to the receptor phase, % of applied dose: less than 0.081% | skin permeation, amount in the receptor phase: < 278 ng/cm^2

Reference: patent US20210052492A1, “Cannabinoid Dosing Regime For Psoriasis” (Botanix Pharmaceuticals Ltd., priority 2018, published 2021)
